Values quoted from earlier work in patent publication US20040018260A1, “Novel botanical extract of Tripterygium Wilfordii Hook F” (Novemed Group Limited, priority 2002, published 2004).
“Also recorded” adds a separate entry of the source.

How the values were obtained:
[1] = in vitro and animal experiments; results called inconclusive
[2] = in vitro and animal experiments; results called inconclusive; remark: listed apart in the source
[3] = reported

| SMILES | immunosuppressive activity [1] | anti-inflammatory activity [2] | carcinogenic or mutagenic [3] |
| --- | --- | --- | --- |
| CC(C)[C@]12O[C@H]1[C@@H]1O[C@@]13[C@@]1(C)CCC4=C(COC4=O)[C@@H]1C[C@@H]1O[C@@]13C2=O [T7, Triptonide] | relatively low activities | relatively low activities | – |
| CC(C)[C@]12O[C@H]1[C@@H]1O[C@]13[C@]1(O[C@H]1C[C@H]1C4=C(CC[C@@]13C)C(=O)OC4)[C@@H]2O [T10, triptolide] | most abundant and active compound | most abundant and active compound | potently carcinogenic or mutagenic; also recorded: carcinogenic |
| CC(C)[C@]1(O)[C@H](O)[C@@H]2O[C@]23[C@]2(O[C@H]2C[C@H]2C4=C(CC[C@@]23C)C(=O)OC4)[C@@H]1O [T11, tripriolide] | little immunosuppressive activity | highest anti-inflammatory activity | – |
